The record followed here is PMC11251039, “Harnessing cholesterol uptake of malaria parasites for therapeutic applications” (EMBO Molecular Medicine, 2024).

pIC50: −log10 of the molar value. “And” between values parts separate entries of the source, which are not always exact repeats. Identical values can stand only once. Like-named read-outs stand apart in the source and are kept apart here.

The test system of experiment [1] is asexual P. falciparum 3D7 wild-type parasites. Nature of the experiment: P. falciparum asexual growth inhibition assay (SYBR Safe DNA replication). The format is cell-based, Plasmodium falciparum. Also noted: Figure 5B dose-response source data (growth, replicate values): unit not given here. As to conditions: for Figure 5B dose-response source data (growth, replicate values): individual replicates; for pIC50: 72 h, read-out: IC50, P. falciparum asexual growth inhibition. On the procedure:
P. falciparum asexual parasite assays commenced with ring-stage parasites at 1% parasitaemia and 1% haematocrit. 200 nM chloroquine (Sigma C6628) or artesunate (Sigma A3731) was used as a no-growth control. DNA replication (indicating growth) was measured at the specified time using SYBR Safe DNA Gel Stain (Invitrogen 33102) and a fluorescence microplate reader (Smilkstein et al, [2004]; Spry et al, [2013]). […]
Growth and Viability Inhibition Assays:
Plasmodium falciparum Growth Inhibition Assays:
P. falciparum parasites were maintained under routine culture conditions in red blood cells and RPMI 1640-Hepes with Glutamax, supplemented with 10 mM D-glucose, 480 μM hypoxanthine, 20 μg/mL gentamicin, 0.375% (w/v) AlbuMAXTM II (Thermo Fisher 11021029), and 2.5% v/v heat-inactivated human serum (17). Cultures were maintained at 37 °C […]
wildtype parasites except for the ring stage survival assay, as specified. Cultures were synchronised with 5% w/v D-sorbitol (18).
Growth inhibition was investigated according to methods described by Smilkstein et al. (19) with modifications by Spry et al. (20). Compounds or solvent controls (DMSO, ethanol, or ethyl acetate) were serially diluted 2-fold across flat-bottom 96-well plates. Culture media without compound was used as a negative control. 200 nM chloroquine (Sigma C6628) or artesunate (Sigma A3731) was used as a positive control to determine background fluorescence. The parasitaemia of a culture containing predominantly ring stage parasites was counted by Giemsa smear. The parasitaemia was adjusted to 1% by addition of fresh uRBCs and added to the plate at a final haematocrit of 1%, with 200 µL per well. The plates were incubated at 37 °C under humid microaerophilic conditions. After 24, 48, or 72 hours, the plates were transferred to a -18 °C freezer to stop the assay and lyse cells. Plates were thawed and lysate was mixed 1:1 with SYBR Safe DNA Gel Stain (Invitrogen 33102) (final concentration 1/10,000) diluted in lysis buffer (20 mM TRIS, 5 mM EDTA, 0.008% w/v Saponin, 0.08% w/v Triton-X 100, pH 7.5). Fluorescence was detected at 490 nm excitation/ 520 nm emission on a FLUOstar Optima fluorescence plate reader (BMG Labtech).

Experiment [2] relates to human embryonic kidney cells (HEK293). As to the kind of experiment: Human embryonic kidney cell viability assay (MTT). It is filed as cell-based. Particulars: for Dose-response data points (Figure 5C): replicate data points. On the procedure:
HEK293 cell viability assays commenced with 5000 cells per well. 10 µg/mL cycloheximide was used as a no-growth control. Metabolic capacity (indicating viability) was measured in an absorbance microplate reader after incubation with 0.45 mg/mL methylthiazolyldiphenyl-tetrazolium bromide (MTT; Sigma M2128) for 2 h followed by crystal solubilisation in SDS. […]
Human Embryonic Kidney Cell Viability Assays:
Human Embryonic Kidney Cell (HEK293) culture:
The HEK293 cell line was maintained under routine culture conditions in DMEM containing 3.7 g/L NaHCO3 supplemented with 10% FBS, 200 μM glutamine, 100 units/mL penicillin, and 100 μg/mL streptomycin at 37 °C in a humidified 5% CO2 incubator.
Cells were detached from a flask using 0.25% Trypsin with 0.2 g/L EDTA (Sigma T4049) and washed with culture media containing no phenol red. Cells were incubated with a serial dilution of each compound, or media/DMSO alone. The protein synthesis inhibitor cycloheximide (Sigma 01810) at 10 µg/mL was used as a positive control to determine background absorbance. 5,000 cells were seeded in each well. After 96 hours, 0.45 mg/mL methylthiazolyldiphenyl-tetrazolium bromide (MTT; Sigma M2128) was added and incubated for a further two hours, before mixing 1.1:1 with 10% w/v sodium dodecyl sulfate (SDS) to solubilise crystals and freezing the plate at -18 °C to stop the assay. […]

As for `CC(C)(C)OOCCO[C@H]1CC[C@H]2[C@@H]3CC=C4C[C@@H](O)CC[C@]4(C)[C@H]3CC[C@]12C` [BC86D], the “Figure 5B dose-response source data (growth, replicate values)” value is 105.3 and 96.53 and 86.36 and 94.74 and 88.38 and 91.4 in experiment [1] (Concentration 0.019532 uM); 101.2 and 93.9 and 88.17 and 67.71 and 70.53 and 73.82 and 95.83 and 90.15 and 93.44 in experiment [1] (Concentration 0.039063 uM); 97.22 and 94.27 and 90.34 and 67.69 and 67.82 and 69.83 and 95.38 and 88.24 and 94.29 in experiment [1] (Concentration 0.078125 uM); 96.36 and 93.34 and 87.86 and 61.44 and 62.01 and 63.2 and 95.83 and 94.74 and 95.36 in experiment [1] (Concentration 0.15625 uM); 73 and 78.58 and 67.15 and 39.54 and 44.2 and 46.55 and 91.73 and 92.12 and 93.7 in experiment [1] (Concentration 0.3125 uM); 35.28 and 38.38 and 34.74 and 19.93 and 23.01 and 29.36 and 61.25 and 65.6 and 67.6 in experiment [1] (Concentration 0.625 uM). The “Figure 5B dose-response source data (growth, replicate values)” value in experiment [1] (Concentration 1.25 uM) was 21.76 and 22.71 and 19.11 and 8.627 and 13.04 and 18.09 and 18.17 and 19.23 and 20.29; in experiment [1] (Concentration 2.5 uM), 14.75 and 15.93 and 13.24 and 1.608 and 6.601 and 8.38 and 7.495 and 10.61 and 8.324; in experiment [1] (Concentration 5 uM), 10.45 and 16.02 and 6.128 and -6.852 and -3.181 and -0.1793 and 5.173 and 6.43 and 3.972; in experiment [1] (Concentration 10 uM), 4.733 and -2.356 and 1.324 and -0.2487 and 0.35 and -1.359 and 1.305 and 0.4257 and 0.3494; in experiment [1] (Concentration 12.5 uM), 2.181 and -0.01995 and -1.157; in experiment [1] (Concentration 25 uM) it was 4.45 and 0.3217 and -1.979. Also, the “Dose-response data points (Figure 5C)” value in experiment [2] (3.125000 μM) is 115.5 and 95.86 and 88.3 and 98.59 and 112 and 99.93 and 104.6 and 105.3 and 96.8 and 121.6 and 126.6 and 132.2; in experiment [2] (6.250000 μM), 96.33 and 95.87 and 97.03 and 100.5 and 103.4 and 96.23 and 94.82 and 98.4 and 99.62 and 111.9 and 133.1 and 110.9; in experiment [2] (12.500000 μM), 82.46 and 90.77 and 77.92 and 80.03 and 95.9 and 97.58 and 94.64 and 94.52 and 89.57 and 87.62 and 85.62 and 86.13; in experiment [2] (25.000000 μM) it was 69.58 and 78.66 and 69.32 and 83.79 and 87.18 and 91.53 and 75.15 and 72.67 and 65.58 and 76.71 and 79.77 and 75.18; in experiment [2] (50.000000 μM) it was 3.07 and 5.347 and 9.422 and 2.15 and 5.359 and 78.86 and -3.535 and -3.352 and -3.7 and -3.023 and -3.058 and -2.513; in experiment [2] (100.000000 μM), -1.036 and -1.804 and -2.143 and -2.292 and -2.356 and -1.995 and -3.811 and -3.706 and -3.888 and -2.988 and -3.04 and -3.163.

Turning to `CC(C)(C)OOCCO[C@H]1CC[C@H]2[C@@H]3CC=C4C[C@@H](O)CC[C@]4(C)[C@H]3CC[C@]12C` [C-17-perox], the pIC50 (as a rule, −log10 of the IC50, conventionally taken in molar units) in experiment [1] was 6.30; in experiment [1] (Plasmodium falciparum, 3D7, 72 h), 6.32; in experiment [2] (Homo sapiens, 96 h, HEK293, read-out: IC50, human embryonic kidney cell inhibition (viability)), 4.50. Further, in experiment [2] (96 h HEK293 vs 72 h P. falciparum), the “Fold difference in IC50 HEK293 compared to P. falciparum” value is ~ 60 fold.
